Assays:
Mre11 condensates = type: biochemical, Saccharomyces cerevisiae; conditions: 500 mM NaCl, brief exposure
Protocol: Experiments were performed without PEG. b, d Effect of DNase I, in the absence of PEG, on (b) Mre11 (n = 9 (no treatment) and 11 (DNase I)) and (d) MRX (n = 9 (no treatment) and 11 (DNase I)) condensates. Condensates were pre-assembled for 20 min with 5.7 nM pUC19 prior to challenge. Quantification represents total foci intensity (green) in a field of view and total number of foci per 1000 µm^2 (magenta). Foci intensity is normalized to the mean intensity of samples with DNA for (a, c) and untreated samples for (b, d). Error bars represent mean ± SD from the indicated (n) fields of view. e, f Effect of the presence of 5% PEG-3350 on (e) Mre11 (n = 12) and (f) MRX (n = 11) condensate formation. Quantification represents total foci intensity (green) in a field of view (normalized to the mean of + PEG images) and total number of foci per 1000 µm^2 (magenta). Error bars represent mean ± SD from the indicated (n) fields of view. g–j Effect of challenge with 5% 1,6-hexanediol and 0.5 M NaCl on (g, h) Mre11 and (i, j) MRX condensates. […] In the control reaction, an equivalent volume (1/20) of water was added instead of hexanediol. […]
(§1) Proteins were diluted to a 10 × stock of their appropriate working concentrations in their respective storage buffers. […] Images were analyzed with ImageJ using a custom-made script. […] Data were analyzed using Graphpad Prism 10.4.0.

MRX condensates = type: biochemical, Saccharomyces cerevisiae; conditions: 500 mM NaCl, brief exposure
Protocol: Experiments were performed without PEG. b, d Effect of DNase I, in the absence of PEG, on (b) Mre11 (n = 9 (no treatment) and 11 (DNase I)) and (d) MRX (n = 9 (no treatment) and 11 (DNase I)) condensates. Condensates were pre-assembled for 20 min with 5.7 nM pUC19 prior to challenge. Quantification represents total foci intensity (green) in a field of view and total number of foci per 1000 µm^2 (magenta). Foci intensity is normalized to the mean intensity of samples with DNA for (a, c) and untreated samples for (b, d). Error bars represent mean ± SD from the indicated (n) fields of view. e, f Effect of the presence of 5% PEG-3350 on (e) Mre11 (n = 12) and (f) MRX (n = 11) condensate formation. Quantification represents total foci intensity (green) in a field of view (normalized to the mean of + PEG images) and total number of foci per 1000 µm^2 (magenta). Error bars represent mean ± SD from the indicated (n) fields of view. g–j Effect of challenge with 5% 1,6-hexanediol and 0.5 M NaCl on (g, h) Mre11 and (i, j) MRX condensates. Condensates were assembled for 20 min prior to challenge and incubated for 15 min and 10 min, respectively, after challenge. […]
as §1

[1] = tested on: MMS-induced Mre11^myc foci in vegetatively growing yeast; assay: Immunofluorescence of MMS-induced Mre11myc foci, vegetative yeast nuclear spreads; type: cell-based, Saccharomyces cerevisiae; conditions: MMS-treated, no hexanediol
Protocol: (§2) Following standard protocols, strains were patched on YPG plates, mated and streaked on YPD plates, and selected diploid colonies grown in liquid YPD at 30 °C, 250 rpm, overnight. For meiotic synchronization, diploid cultures grown overnight in YPD were transferred to YPA (1% yeast extract, 2% peptone, 1% potassium acetate) at OD600 0.2 and grown for 12–14 h at 30 °C, 250 rpm. Once the cultures reached OD600 between 1.2–1.6, cells were washed once with prewarmed sterile water and immediately transferred to sporulation medium supplemented with amino acids (320 µL amino acid complementation media for 100 mL of sporulation media (SPM)) and were kept shaking at 30 °C, 250 rpm during the entire meiotic time-course. For MMS and CPT (Sigma) sensitivity assays, serial dilutions of overnight cultures were spotted on freshly prepared YPD-MMS or YPD-CPT plates containing the indicated percentage of MMS or CPT, respectively. Plates were grown for two days at 30 °C. For immunofluorescence of vegetatively growing cells, overnight cultures were refreshed by diluting to OD600 0.2 and grown for 3-4 hours to reach OD600 1.2–1.4 before subjecting to MMS or MMS followed by 5% 1,6-hexanediol treatment. For 5% 1,6-hexanediol treatment, cells were first converted to spheroplasts and then treated with 5% 1,6-hexanediol for 4-5 min. Spheroplasts were then immediately washed, lysed, and fixed using the protocol described below.
Meiotic cultures were harvested 4 h after transfer to SPM, washed with sterile cold water, and resuspended in 1 M sorbitol, 1 × PBS (pH 7), 10 mM DTT, 0.5 mg/ml zymolyase 20 T, and incubated for 30 mins at 30 °C with gentle shaking. […]
Slides were blocked with 90% FBS, 1 × PBS for 1 h at room temperature in a humid chamber and then incubated with primary antibody (mouse mAb anti-myc, 1:200 (2276S, Cell Signaling Technology), rabbit anti-phospho H2A-S129, 1:200 (ab15083, abcam)) diluted in 3% BSA, 1 × PBS in a humid chamber for 2 h at 37 °C or overnight at 4 °C. […] Images were captured on a Zeiss Axio Observer with a 100 ×/1.4 NA oil immersion objective and were analyzed in ImageJ.

Mre11^myc yeast strains = assay: MMS and CPT sensitivity assay (spotted serial dilutions); type: cell-based, Saccharomyces cerevisiae; conditions: ten-fold serial dilutions on YPD; for Sensitivity of mre11-ΔC49 mutant (in words): mre11-ΔC49 strain; for Sensitivity of mre11-ΔIDR mutant (in words): mre11-ΔIDR strain compared with wild type
Protocol: as §2

[2] = tested on: supercoiled pUC19 plasmid DNA; assay: In vitro condensation assay of MRX complex (fluorescence microscopy); type: biochemical; conditions: in the presence of plasmid DNA
Protocol: Fig. 1 Mre11 and the MRX complex assemble DNA-dependent condensates in vitro. a, c Effect of the presence of plasmid DNA on condensation of (a) Alexa488-labeled Mre11 (n = 11 and 9 fields of view for reactions without and with DNA, respectively) and (c) eGFP-tagged MRX (n = 11 (- DNA) and 9 ( + DNA)). Experiments were performed without PEG. b, d Effect of DNase I, in the absence of PEG, on (b) Mre11 (n = 9 (no treatment) and 11 (DNase I)) and (d) MRX (n = 9 (no treatment) and 11 (DNase I)) condensates. Condensates were pre-assembled for 20 min with 5.7 nM pUC19 prior to challenge. Quantification represents total foci intensity (green) in a field of view and total number of foci per 1000 µm^2 (magenta). Foci intensity is normalized to the mean intensity of samples with DNA for (a, c) and untreated samples for (b, d). […] Quantification represents total foci intensity (green) in a field of view (normalized to the mean of + PEG images) and total number of foci per 1000 µm^2 (magenta). […]
Fig. 2 The C-terminal IDR of Mre11 is required for condensation. a AlphaFold2 predicted model of Mre11 (AF-P32829-F1-v4). […] Quantification represents total fluorescence intensity (green) in a field of view and total number of foci per 1000 µm^2 (magenta). […]

| Compound | Sensitivity of mre11-ΔC49 mutant (in words) (Mre11^myc yeast strains) | Sensitivity of mre11-ΔIDR mutant (in words) (Mre11^myc yeast strains) | other results |
| --- | --- | --- | --- |
| [Cl-].[Na+] [NaCl] |  |  | Effect on Mre11 foci intensity (in words) (Mre11 condensates): strongly reduced foci intensity; Effect on MRX foci intensity (in words) (MRX condensates): strongly reduced foci intensity |
| COS(C)(=O)=O [MMS, methylmethanesulfonate] | resistant | as resistant to MMS or CPT as wild-type cells | Percentage of aggregates [1]: 0 |
| MRX: Mre11-Rad50-Xrs2 complex, recombinant from Sf9 cells |  |  | Condensate formation (in words) [2]: form large clusters visible by fluorescence microscopy |
| CC[C@@]1(O)C(=O)OCc2c1cc1n(c2=O)Cc2cc3ccccc3nc2-1 [CPT, camptothecin] | resistant | as resistant to MMS or CPT as wild-type cells |  |

Source: publication PMC13233820, “Recruitment of Mre11 to recombination sites during meiosis” (Nature Communications, 2026)
